{"source": "patent US20230218563A1", "about": "“METHODS FOR TREATING OR PREVENTING CHRONIC KIDNEY DISEASE” (Arthrosi Therapeutics, Inc., priority 2020, published 2023)", "system": "urine albumin-to-creatinine ratio (UACR)", "experiment": "Renal function safety pharmacology study in rats, single oral dose (urine albumin, creatinine, UACR)", "assay_type": "in vivo, Sprague Dawley Rats", "procedure": "Cageside and detailed clinical observations, body weights, water consumption, blood clinical chemistry, urine chemistry, and urinalysis were performed. Osmolality, osmolality gap, urine volume, water intake rate, fluid balance, urinary excretion, renal creatinine clearance, renal clearance, free water clearance, and fractional electrolyte clearance were calculated and evaluated. All animals were euthanized on Day 2 after scheduled observations. Blood samples for clinical chemistry analysis were collected from all the animals at 24 hours post dose prior to each scheduled euthanasia. Urine samples for clinical chemistry and urinalysis were collected from all the animals at pre-dose (˜24 hours) and 0-6 hours and 6-24 hours post-dose.", "key": {"[1]": {"conditions": "female rats, 5 mg/kg single oral, urine 0-6 h post dose"}, "[2]": {"conditions": "female rats, 5 mg/kg single oral, urine 6-24 h post dose"}, "[3]": {"conditions": "female rats, 15 mg/kg single oral, urine 0-6 h post dose"}, "[4]": {"conditions": "female rats, 15 mg/kg single oral, urine 6-24 h post dose"}, "[5]": {"conditions": "female rats, 50 mg/kg single oral, urine 0-6 h post dose"}, "[6]": {"conditions": "female rats, 50 mg/kg single oral, urine 6-24 h post dose"}, "[7]": {"conditions": "male rats, 10 mg/kg single oral, urine 0-6 h post dose"}, "[8]": {"conditions": "male rats, 10 mg/kg single oral, urine 6-24 h post dose"}, "[9]": {"conditions": "male rats, 30 mg/kg single oral, urine 0-6 h post dose"}, "[10]": {"conditions": "male rats, 30 mg/kg single oral, urine 6-24 h post dose"}, "[11]": {"conditions": "male rats, 100 mg/kg single oral, urine 0-6 h post dose"}, "[12]": {"conditions": "male rats, 100 mg/kg single oral, urine 6-24 h post dose"}}, "data": [{"smiles": "[2H]c1c([2H])c([2H])c2c(C(=O)c3cc(Br)c(O)c(Br)c3)c(C(C)O)oc2c1[2H]", "note": "(racemic) [Compound 1, (3,5-dibromo-4-hydroxyphenyl)(2-(1-hydroxyethyl)benzofuran-3-yl-4,5,6,7-d4)methanone]", "values": [{"measurement": "% UACR change vs Ctrl", "setting": "[1]", "result": 140, "unit": "%"}, {"measurement": "% UACR change vs baseline", "setting": "[1]", "result": 73, "unit": "%"}, {"measurement": "UACR", "setting": "[1]", "result": 102.7, "unit": "mg/g"}, {"measurement": "UALB", "setting": "[1]", "result": 33.71, "unit": "mg/L"}, {"measurement": "UCRE", "setting": "[1]", "result": 0.328, "unit": "g/L"}, {"measurement": "% UACR change vs Ctrl", "setting": "[2]", "result": 19, "unit": "%"}, {"measurement": "% UACR change vs baseline", "setting": "[2]", "result": 44, "unit": "%"}, {"measurement": "UACR", "setting": "[2]", "result": 40.3, "unit": "mg/g"}, {"measurement": "UALB", "setting": "[2]", "result": 24.2, "unit": "mg/L"}, {"measurement": "UCRE", "setting": "[2]", "result": 0.600, "unit": "g/L"}, {"measurement": "% UACR change vs Ctrl", "setting": "[3]", "result": "−53", "unit": "%"}, {"measurement": "% UACR change vs baseline", "setting": "[3]", "result": "−6", "unit": "%"}, {"measurement": "UACR", "setting": "[3]", "result": 17.5, "unit": "mg/g"}, {"measurement": "UALB", "setting": "[3]", "result": 5.22, "unit": "mg/L"}, {"measurement": "UCRE", "setting": "[3]", "result": 0.298, "unit": "g/L"}, {"measurement": "% UACR change vs Ctrl", "setting": "[4]", "result": "−41", "unit": "%"}, {"measurement": "% UACR change vs baseline", "setting": "[4]", "result": 9, "unit": "%"}, {"measurement": "UACR", "setting": "[4]", "result": 20.1, "unit": "mg/g"}, {"measurement": "UALB", "setting": "[4]", "result": 11.93, "unit": "mg/L"}, {"measurement": "UCRE", "setting": "[4]", "result": 0.593, "unit": "g/L"}, {"measurement": "% UACR change vs Ctrl", "setting": "[5]", "result": "−38", "unit": "%"}, {"measurement": "% UACR change vs baseline", "setting": "[5]", "result": "−23", "unit": "%"}, {"measurement": "UACR", "setting": "[5]", "result": 23.4, "unit": "mg/g"}, {"measurement": "UALB", "setting": "[5]", "result": 9.58, "unit": "mg/L"}, {"measurement": "UCRE", "setting": "[5]", "result": 0.409, "unit": "g/L"}, {"measurement": "% UACR change vs Ctrl", "setting": "[6]", "result": "−21", "unit": "%"}, {"measurement": "% UACR change vs baseline", "setting": "[6]", "result": "−7", "unit": "%"}, {"measurement": "UACR", "setting": "[6]", "result": 26.8, "unit": "mg/g"}, {"measurement": "UALB", "setting": "[6]", "result": 21.15, "unit": "mg/L"}, {"measurement": "UCRE", "setting": "[6]", "result": 0.790, "unit": "g/L"}, {"measurement": "% UACR change vs Ctrl", "setting": "[7]", "result": "−62", "unit": "%"}, {"measurement": "% UACR change vs baseline", "setting": "[7]", "result": "−62", "unit": "%"}, {"measurement": "UACR", "setting": "[7]", "result": 14.2, "unit": "mg/g"}, {"measurement": "UALB", "setting": "[7]", "result": 6.22, "unit": "mg/L"}, {"measurement": "UCRE", "setting": "[7]", "result": 0.438, "unit": "g/L"}, {"measurement": "% UACR change vs Ctrl", "setting": "[8]", "result": "−32", "unit": "%"}, {"measurement": "% UACR change vs baseline", "setting": "[8]", "result": 23, "unit": "%"}, {"measurement": "UACR", "setting": "[8]", "result": 28.3, "unit": "mg/g"}, {"measurement": "UALB", "setting": "[8]", "result": 14.79, "unit": "mg/L"}, {"measurement": "UCRE", "setting": "[8]", "result": 0.523, "unit": "g/L"}, {"measurement": "% UACR change vs Ctrl", "setting": "[9]", "result": "−59", "unit": "%"}, {"measurement": "% UACR change vs baseline", "setting": "[9]", "result": "−46", "unit": "%"}, {"measurement": "UACR", "setting": "[9]", "result": 15.5, "unit": "mg/g"}, {"measurement": "UALB", "setting": "[9]", "result": 8.73, "unit": "mg/L"}, {"measurement": "UCRE", "setting": "[9]", "result": 0.563, "unit": "g/L"}, {"measurement": "% UACR change vs Ctrl", "setting": "[10]", "result": "−28", "unit": "%"}, {"measurement": "% UACR change vs baseline", "setting": "[10]", "result": 31, "unit": "%"}, {"measurement": "UACR", "setting": "[10]", "result": 29.6, "unit": "mg/g"}, {"measurement": "UALB", "setting": "[10]", "result": 12.38, "unit": "mg/L"}, {"measurement": "UCRE", "setting": "[10]", "result": 0.418, "unit": "g/L"}, {"measurement": "% UACR change vs Ctrl", "setting": "[11]", "result": "−63", "unit": "%"}, {"measurement": "% UACR change vs baseline", "setting": "[11]", "result": "−38", "unit": "%"}, {"measurement": "UACR", "setting": "[11]", "result": 13.9, "unit": "mg/g"}, {"measurement": "UALB", "setting": "[11]", "result": 9.25, "unit": "mg/L"}, {"measurement": "UCRE", "setting": "[11]", "result": 0.666, "unit": "g/L"}, {"measurement": "% UACR change vs Ctrl", "setting": "[12]", "result": "−32", "unit": "%"}, {"measurement": "% UACR change vs baseline", "setting": "[12]", "result": 46, "unit": "%"}, {"measurement": "UACR", "setting": "[12]", "result": 28.0, "unit": "mg/g"}, {"measurement": "UALB", "setting": "[12]", "result": 15.18, "unit": "mg/L"}, {"measurement": "UCRE", "setting": "[12]", "result": 0.542, "unit": "g/L"}]}]}
